We go through 15 compounds from US20160272617A1, “SUBSTITUTED PHENYLALANINE DERIVATIVES” (BAYER PHARMA AKTIENGESELLSCHAFT, priority 2013, published 2016).

In one assay the target is T1, human factor XIa (Homo sapiens, UniProt P03951).
T1 construct: purchased Kordia
In words: Measurement of FXIa inhibition (fluorogenic peptide substrate Boc-Glu(OBzl)-Ala-Arg-AMC). The format is biochemical. The settings on record: factor XIa from Kordia, 15 min preincubation, 30 min at 22° C., fluorescence. The procedure, abridged:
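Released AMC fluorescence (360/460 nm) read after 30 min at 22 °C. The reaction was started with Boc-Glu(OBzl)-Ala-Arg-AMC (10 μM stock) after a 15 min preincubation of the enzyme (0.45 nM stock) with compound (final 50 μM to 0.00013 μM).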

The next assay has as its system human and animal plasma. Nature of the assay: Determination of anticoagulatory activity: activated partial thromboplastin time (aPTT) in plasma. The settings on record: concentration of test substance which brings about a 1.5-fold extension of the aPTT, plasma species not given. The procedure, abridged:
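Citrated plasma (1:9, 0.11 M citrate; 4000 g, 15 min) from human or animal blood incubated with test compound and cephalin/kaolin PTT reagent for 3 min at 37° C.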

Structures can show the parent of a compound that is named as a salt.

T1 sequence (P03951 388-625 limits assumed): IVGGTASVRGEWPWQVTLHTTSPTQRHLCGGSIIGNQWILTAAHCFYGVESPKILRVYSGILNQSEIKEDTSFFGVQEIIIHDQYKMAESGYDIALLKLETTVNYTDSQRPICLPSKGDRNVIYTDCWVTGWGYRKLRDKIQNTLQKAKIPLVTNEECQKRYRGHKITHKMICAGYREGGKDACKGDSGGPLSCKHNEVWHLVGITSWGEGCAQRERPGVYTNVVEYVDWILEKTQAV
T1 sequence (P03951 19-387 partner limits assumed): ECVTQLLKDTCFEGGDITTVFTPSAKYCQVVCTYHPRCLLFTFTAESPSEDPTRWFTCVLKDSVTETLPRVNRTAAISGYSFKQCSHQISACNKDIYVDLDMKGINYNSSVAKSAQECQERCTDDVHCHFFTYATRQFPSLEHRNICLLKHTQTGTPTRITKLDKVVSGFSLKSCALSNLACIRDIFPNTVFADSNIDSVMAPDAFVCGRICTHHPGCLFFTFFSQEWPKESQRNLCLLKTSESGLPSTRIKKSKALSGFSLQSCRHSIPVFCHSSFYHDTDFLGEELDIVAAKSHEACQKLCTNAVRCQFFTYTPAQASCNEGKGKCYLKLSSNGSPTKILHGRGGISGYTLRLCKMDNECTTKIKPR

As usually defined, the IC50 is the midpoint of a concentration-inhibition curve. Read a low IC50 as higher potency. At human factor XIa, `Cc1cc(C(=O)N[C@H]2CCCNC2=O)ccc1-c1ccc(C[C@H](NC(=O)[C@H]2CC[C@H](CN)CC2)C(=O)Nc2ccc3c(Cl)n[nH]c3c2)cc1` [Example 93, 4′-{(2S)-2-({[trans-4-(Aminomethyl)cyclohexyl]carbonyl}amino)-3-[(3-chloro-1H-indazol-6-yl)amino]-3-oxopropyl}-2-methyl-N-[(3S)-2-oxopiperidin-3-yl]biphenyl-4-carboxamide hydrochloride] had an IC50 of 2.4 nM. In addition, the “aPTT” value with human and animal plasma came out at 0.21 µmol/L.
For `CCN(CC)C1CCC(NC(=O)c2ccc(-c3ccc(C[C@H](NC(=O)[C@H]4CC[C@H](CN)CC4)C(=O)Nc4ccc5c(Cl)n[nH]c5c4)cc3)c(C)c2)CC1` (stereo partly drawn) [Example 94, 4′-{(2S)-2-({[trans-4-(Aminomethyl)cyclohexyl]carbonyl}amino)-3-[(3-chloro-1H-indazol-6-yl)amino]-3-oxopropyl}-N-[4-(diethylamino)cyclohexyl]-2-methylbiphenyl-4-carboxamide hydrochloride], in that order: 9.2 nM and 0.23 µmol/L.
For `Cc1cc(-c2ccc(C[C@H](NC(=O)[C@H]3CC[C@H](CN)CC3)C(=O)Nc3ccc(-c4nnn[nH]4)cc3)cc2)ccc1C(=O)NC1CC1` [Example 95, 4′-[(2S)-2-({[trans-4-(Aminomethyl)cyclohexyl]carbonyl}amino)-3-oxo-3-{[4-(1H-tetrazol-5-yl)phenyl]amino}propyl]-N-cyclopropyl-3-methylbiphenyl-4-carboxamide hydrochloride], in that order: 2.4 nM and 0.33 µmol/L.
The matching figures for `Cc1cc(C(=O)N[C@@H]2C[C@@H](CO)NC2=O)ccc1-c1ccc(C[C@H](NC(=O)[C@H]2CC[C@H](CN)CC2)C(=O)Nc2ccc3[nH]c(=O)[nH]c3c2)cc1` [Example 97, 4′-{(2S)-2-({[trans-4-(Aminomethyl)cyclohexyl]carbonyl}amino)-3-oxo-3-[(2-oxo-2,3-dihydro-1H-benzimidazol-5-yl)amino]propyl}-N-[(3R,5S)-5-(hydroxymethyl)-2-oxopyrrolidin-3-yl]-2-methylbiphenyl-4-carboxamide hydrochloride]: 3.2 nM and 0.06 µmol/L.
With `Cc1cc(C(=O)NC2CCNCC2)ccc1-c1ccc(C[C@H](NC(=O)[C@H]2CC[C@H](CN)CC2)C(=O)Nc2ccc(-c3nc(C(F)(F)C(F)(F)C(=O)O)n[nH]3)cc2)cc1` [Example 98, 3-{(5-[4-({(2S)-2-({[trans-4-(Aminomethyl)cyclohexyl]carbonyl}amino)-3-[2′-methyl-4′-(piperidin-4-ylcarbamoyl)biphenyl-4-yl]propanoyl}amino)phenyl]-1H-1,2,4-triazol-3-yl}-2,2,3,3-tetrafluoropropanoic acid hydrochloride], the IC50 against human factor XIa came out at 1 nM. Also, in the assay with human and animal plasma, the “aPTT” value is 0.06 µmol/L.
The compound `Cc1cc(C(=O)N[C@H]2CCNC2=O)ccc1-c1ccc(C[C@H](NC(=O)[C@H]2CC[C@H](CN)CC2)C(=O)Nc2cc(F)c3oc(=O)[nH]c3c2)cc1` [Example 99, 4′-{(2S)-2-({[trans-4-(Aminomethyl)cyclohexyl]carbonyl}amino)-3-[(7-fluoro-2-oxo-2,3-dihydro-1,3-benzoxazol-5-yl)amino]-3-oxopropyl}-2-methyl-N-[(3S)-2-oxopyrrolidin-3-yl]biphenyl-4-carboxamide hydrochloride] returned an IC50 against human factor XIa of 4.7 nM. The “aPTT” value in the assay on human and animal plasma was determined as 0.27 µmol/L.
As to `Cc1cc(C(=O)NC2CCN(C)CC2)ccc1-c1ccc(C[C@H](NC(=O)[C@H]2CC[C@H](CN)CC2)C(=O)Nc2ccc(-c3nc(C(F)(F)C(F)(F)C(=O)O)n[nH]3)cc2)cc1` [Example 100, 3-[5-(4-{[(2S)-2-({[trans-4-(Aminomethyl)cyclohexyl]carbonyl}amino)-3-{2′-methyl-4′-[(1-methylpiperidin-4-yl)carbamoyl]biphenyl-4-yl}propanoyl]amino}phenyl)-1H-1,2,4-triazol-3-yl]-2,2,3,3-tetrafluoropropanoic acid hydrochloride], on human factor XIa, the IC50 is 2.2 nM. In addition, the “aPTT” value in the assay on human and animal plasma (hydrochloride) was found to be 0.1 µmol/L.
`Cc1cc(C(=O)NC2CCC(N(C)C)CC2)ccc1-c1ccc(CC(NC(=O)[C@H]2CC[C@H](CN)CC2)C(=O)Nc2ccc(-c3nc(C(F)(F)C(F)(F)C(=O)O)n[nH]3)cc2)cc1` (stereo partly drawn) [Example 101, 3-[5-(4-{[(2S)-2-({[trans-4-(Aminomethyl)cyclohexyl]carbonyl}amino)-3-(4′-{[4-(dimethyl-amino)cyclohexyl]carbamoyl}-2′-methylbiphenyl-4-yl)propanoyl]amino}phenyl)-1H-1,2,4-triazol-3-yl]-2,2,3,3-tetrafluoropropanoic acid hydrochloride]: at human factor XIa, the IC50 came out at 1.1 nM. Moreover, the “aPTT” value with human and animal plasma is 0.07 µmol/L.
For `Cc1cc(C(=O)N[C@@H]2C[C@@H](CO)NC2=O)ccc1-c1ccc(C[C@H](NC(=O)[C@H]2CC[C@H](CN)CC2)C(=O)Nc2ccc(-c3nc(C(F)(F)C(F)(F)C(=O)O)n[nH]3)cc2)cc1` [Example 106, 3-[5-(4-{[(2S)-2-({[trans-4-(Aminomethyl)cyclohexyl]carbonyl}amino)-3-(4′-{[(3R,5S)-5-(hydroxymethyl)-2-oxopyrrolidin-3-yl]carbamoyl}-2′-methylbiphenyl-4-yl)propanoyl]amino}-phenyl)-1H-1,2,4-triazol-3-yl]-2,2,3,3-tetrafluoropropanoic acid hydrochloride], in that order: 1.1 nM and 0.11 µmol/L.
The matching figures for `Cc1cc(C(=O)NC2CCNCC2(C)C)ccc1-c1ccc(C[C@H](NC(=O)[C@H]2CC[C@H](CN)CC2)C(=O)Nc2ccc(-c3nnc(C(F)(F)C(F)(F)C(=O)O)[nH]3)cc2)cc1` (stereo partly drawn) [Example 107, 3-[5-(4-{[(2S)-2-({[trans-4-(Aminomethyl)cyclohexyl]carbonyl}amino)-3-{4′-[(3,3-dimethylpiperidin-4-yl)carbamoyl]-2′-methylbiphenyl-4-yl}propanoyl]amino}phenyl)-4H-1,2,4-triazol-3-yl]-2,2,3,3-tetrafluoropropanoic acid hydrochloride]: 1.4 nM and 0.1 µmol/L.
Turning to `Cc1cc(C(=O)NCC2CCN(C)CC2)ccc1-c1ccc(C[C@H](NC(=O)[C@H]2CC[C@H](CN)CC2)C(=O)Nc2ccc(-c3nnc(C(F)(F)C(F)(F)C(=O)O)[nH]3)cc2)cc1` [Example 108, 3-[5-(4-{[(2S)-2-({[trans-4-(Aminomethyl)cyclohexyl]carbonyl}amino)-3-(2′-methyl-4′-{[(1-methylpiperidin-4-yl)methyl]carbamoyl}biphenyl-4-yl)propanoyl]amino}phenyl)-4H-1,2,4-triazol-3-yl]-2,2,3,3-tetrafluoropropanoic acid hydrochloride], at human factor XIa, the IC50 was found to be 1.9 nM. In addition, the “aPTT” value in the assay with human and animal plasma was determined as 0.07 µmol/L.
For `Cc1cc(C(=O)NC2CCN(C)CC2)ccc1-c1ccc(C[C@H](NC(=O)[C@H]2CC[C@H](CN)CC2)C(=O)Nc2ccc(-c3nc(C(F)(F)C(F)(F)CO)n[nH]3)cc2)cc1` [Example 109, 4′-[(2S)-2-({[trans-4-(Aminomethyl)cyclohexyl]carbonyl}amino)-3-oxo-3-({4-[3-(1,1,2,2-tetrafluoro-3-hydroxypropyl)-1H-1,2,4-triazol-5-yl]phenyl}amino)propyl]-2-methyl-N-(1-methylpiperidin-4-yl)biphenyl-4-carboxamide hydrochloride], in that order: 3 nM and 0.11 µmol/L.
The matching figures for `Cc1cc(C(=O)N[C@H]2CC[C@H](O)CC2)ccc1-c1ccc(C[C@H](NC(=O)[C@H]2CC[C@H](CN)CC2)C(=O)Nc2ccc(-c3nc(C(F)(F)C(F)(F)CO)n[nH]3)cc2)cc1` [Example 110, 4′-[(2S)-2-({[trans-4-(Aminomethyl)cyclohexyl]carbonyl}amino)-3-oxo-3-({4-[3-(1,1,2,2-tetrafluoro-3-hydroxypropyl)-1H-1,2,4-triazol-5-yl]phenyl}amino)propyl]-N-(trans-4-hydroxycyclohexyl)-2-methylbiphenyl-4-carboxamide hydrochloride]: 1.8 nM and 0.11 µmol/L.
For `NC[C@H]1CC[C@H](C(=O)N[C@@H](Cc2ccc(-c3ccc(C(=O)N[C@@H]4CCCNC4=O)c(F)c3)cc2)C(=O)Nc2ccc(-c3n[nH]c(C(F)(F)C(F)(F)C(=O)O)n3)cc2)CC1` [Example 111, 3-[3-(4-{[(2S)-2-({[trans-4-(Aminomethyl)cyclohexyl]carbonyl}amino)-3-(3′-fluoro-4′-{[(3R)-2-oxopiperidin-3-yl]carbamoyl}biphenyl-4-yl)propanoyl]amino}phenyl)-1H-1,2,4-triazol-5-yl]-2,2,3,3-tetrafluoropropanoic acid hydrochloride], in that order: 1 nM and 0.13 µmol/L.
Consider `NC[C@H]1CC[C@H](C(=O)N[C@@H](Cc2ccc(-c3ccc(C(=O)N[C@H]4CC[C@H](O)CC4)c(F)c3)cc2)C(=O)Nc2ccc(-c3n[nH]c(C(F)(F)C(F)(F)C(=O)O)n3)cc2)CC1` [Example 112, 3-[3-(4-{[(2S)-2-({[trans-4-(Aminomethyl)cyclohexyl]carbonyl}amino)-3-{3′-fluoro-4′-[(trans-4-hydroxycyclohexyl)carbamoyl]biphenyl-4-yl}propanoyl]amino}phenyl)-1H-1,2,4-triazol-5-yl]-2,2,3,3-tetrafluoropropanoic acid hydrochloride], for which, on human factor XIa, the IC50 came out at 2 nM. In the assay with human and animal plasma, the “aPTT” value is 0.17 µmol/L.
